In the NIST ThermoML archive (doi:10.1016/j.jct.2006.05.008):

Test: molar heat capacity at constant pressure
Conditions: 101.33 kPa

CCn1cc[n+](C)c1.[Br-] [1-ethyl-3-methylimidazolium bromide]
molar heat capacity at constant pressure [J/K/mol], Small (less than 1 g) adiabatic calorimetry
Conditions	Crystal	Liquid
5 K	0.322	–
10 K	3.336	–
15 K	9.171	–
20 K	16.81	–
25 K	25	–
30 K	33.08	–
35 K	40.68	–
40 K	47.53	–
45 K	53.77	–
50 K	59.49	–
60 K	69.57	–
70 K	78.03	–
80 K	85.47	–
80.24 K	85.68	–
83.06 K	87.67	–
85.79 K	89.36	–
88.55 K	91.21	–
90 K	92.12	–
91.34 K	93.01	–
94.15 K	94.8	–
96.98 K	96.52	–
99.83 K	98.18	–
100 K	98.11	–
102.69 K	99.88	–
105.57 K	101.51	–
108.46 K	103.1	–
110 K	103.8	–
111.37 K	104.69	–
114.29 K	106.29	–
117.22 K	107.83	–
120 K	109.1	–
120.16 K	109.35	–
123.11 K	110.89	–
126.08 K	112.42	–
129.06 K	113.89	–
130 K	114.2	–
132.03 K	115.39	–
135.01 K	116.87	–
138 K	118.34	–
140 K	119.1	–
140.99 K	119.85	–
143.99 K	121.33	–
146.99 K	122.81	–
149.99 K	124.27	–
150 K	124.1	–
152.99 K	125.74	–
156 K	127.17	–
159 K	128.63	–
160 K	128.9	–
162.08 K	130.18	–
165.15 K	131.64	–
168.15 K	133.08	–
170 K	133.7	–
171.16 K	134.55	–
174.16 K	136.01	–
177.16 K	137.5	–
180 K	138.6	–
180.15 K	138.89	–
183.15 K	140.38	–
186.14 K	141.85	–
189.13 K	143.32	–
190 K	143.6	–
192.12 K	144.81	–
195.1 K	146.31	–
198.07 K	147.84	–
200 K	148.7	–
201.05 K	149.45	–
204.01 K	151.13	–
206.98 K	152.7	–
209.94 K	154.27	–
210 K	153.9	–
212.9 K	155.83	–
215.85 K	157.4	–
218.78 K	158.98	–
220 K	159.2	–
221.71 K	160.52	–
224.63 K	162.13	–
227.55 K	163.72	–
230 K	164.7	–
230.45 K	165.37	–
233.35 K	166.97	–
236.24 K	168.5	–
239.13 K	170.14	–
240 K	170.4	–
242 K	171.88	–
244.87 K	173.49	–
247.74 K	175.15	–
250 K	176.2	–
250.59 K	176.83	–
253.44 K	178.51	–
256.25 K	180.2	–
259.07 K	181.98	–
260 K	182.2	–
261.87 K	183.73	–
264.68 K	185.47	–
267.47 K	187.2	–
270 K	188.3	–
270.26 K	188.95	–
273.03 K	190.7	–
275.79 K	192.52	–
278.53 K	194.49	–
280 K	195.1	–
281.26 K	196.34	–
283.96 K	198.2	–
286.66 K	199.93	–
289.36 K	201.96	–
290 K	202	–
292.03 K	203.78	–
294.7 K	205.78	–
297.36 K	207.81	–
298.15 K	207.5	–
299.92 K	209.77	–
300 K	208.8	–
310 K	215.7	–
320 K	222.5	–
330 K	229.4	–
340 K	236.3	–
347.66 K	–	265.34
349.92 K	243.1	264.8
350 K	–	264.8
350.15 K	–	266.1
352.61 K	–	266.89
353.91 K	–	267.52
355.07 K	–	267.71
357.53 K	–	268.53
359.99 K	–	269.33
360 K	–	268.6
361.35 K	–	270.21
362.45 K	–	270.78
364.95 K	–	271.95
366.81 K	–	270.88
367.5 K	–	272.58
370 K	–	272.4

Crystal
Conditions	molar heat capacity at constant pressure [J/K/mol]
5.194 K	0.3611
5.579 K	0.4605
5.885 K	0.5503
6.228 K	0.6668
6.606 K	0.8178
6.985 K	0.9897
7.365 K	1.183
7.747 K	1.406
8.13 K	1.655
8.515 K	1.937
8.9 K	2.249
9.286 K	2.597
9.673 K	2.979
10.06 K	3.401
10.55 K	3.999
11.14 K	4.807
11.73 K	5.74
12.32 K	6.81
12.91 K	7.996
13.54 K	8.107
14.21 K	8.109
14.85 K	8.978
15.58 K	10.01
16.41 K	11.22
17.25 K	12.49
18.08 K	13.77
18.92 K	15.08
19.75 K	16.41
20.88 K	18.28
22.31 K	20.62
23.74 K	22.98
25.17 K	25.34
26.6 K	27.65
28.05 K	30.01
29.5 K	32.33
30.94 K	34.65
32.4 K	36.88
33.85 K	39.07
35.31 K	41.18
36.76 K	43.24
38.22 K	45.23
39.68 K	47.2
41.38 K	49.4
43.34 K	51.87
45.31 K	54.3
47.28 K	56.63
49.24 K	58.85
51.21 K	60.97
53.18 K	63
55.14 K	65
57.11 K	66.93
59.08 K	68.82
61.05 K	70.7
63.03 K	72.54
65 K	74.25
66.98 K	75.86
68.96 K	77.42
70.95 K	78.97
72.93 K	80.48
74.92 K	82.06
76.91 K	83.6
78.9 K	85.15
80.9 K	86.6
82.91 K	87.82
